Measured values reported in patent publication EP0038117A1, “Methods for preparing anti-hypertensive agents” (UNIVERSITY OF MIAMI, priority 1980, dated 1981).

Experiment: Stability of aqueous solution on standing under ambient conditions (loss of inhibitory activity)
Type: physicochemical
Conditions: 1 mg per ml, pH of about 8, standing for as little as 30 minutes

C[C@H](CS)C(=O)N1CCC[C@H]1C(=O)O [SQ14225, D-3-mercapto-2-methylpropanoyl-L-proline]
activity of fresh aqueous solution upon standing: substantially less active
